Measurements from PMC7179434, “1,2,4-Triazolo[1,5-a]pyrimidines as a Novel Class of Inhibitors of the HIV-1 Reverse Transcriptase-Associated Ribonuclease H Activity” (Molecules, 2020).
“Also recorded” adds a separate entry of the source. Like-named read-outs stand apart in the source and are kept apart here.

Columns and labels:
HIV-1 replication = conditions: cited from earlier work
HIV-1 RNase H = target: HIV-1 RNase H; parameters: method as in ref 17-25, 27-29 (per compound as in Figure 1 legend); conditions: known allosteric RNHIs, 27-29 (per compound as in Figure 1 legend), cited from earlier work
HIV-1 RDDP = tested on: HIV-1 RDDP; parameters: method as in ref 17-21, 27-29 (per compound as in Figure 1 legend); conditions: known allosteric RNHIs; 27-29 (per compound as in Figure 1 legend); cited from earlier work
cell growth = tested on: cell growth; parameters: method as in PMID 17184135, PMID 23631411; conditions: concentration that inhibits cell growth by 50%; read-out: CC50 (cytotoxicity); cited from earlier work
HIV-2 RNase H = target: HIV-2 RNase H; parameters: method as in PMID 18831589; conditions: cited from earlier work
[1] = target: HIV-1 RT-associated RNase H (Human immunodeficiency virus type 1 group M subtype B, UniProt P03366); test: biochemical; assay type: biochemical
HIV-1 (IIIB strain) = assay type: cell-based; conditions: acutely infected MT-4 cells
in vitro = conditions: human
HIV-2 (ROD strain) = test: Anti-HIV-2 activity in acutely infected MT-4 cells (MTT); assay type: cell-based
HIV-1 RT-associated RDDP = HIV-1 RT-associated RDDP (Human immunodeficiency virus type 1 group M subtype B, UniProt P03366); test: biochemical; assay type: biochemical
[2] = 28 (per compound as in Figure 1 legend)

Q: With `COc1ccc2ccccc2c1/C=N/NC(=O)c1ccc(O)c(O)c1` [Compound 1] as the compound, how does the EC50 (HIV-1 replication; [2]) read?
A: 5500 nM

Q: And the IC50 (HIV-1 RNase H)?
A: 500 nM

Q: What about the IC50 (HIV-1 RDDP) of the same compound?
A: > 25000 nM

Q: And the CC50 (cell growth)?
A: > 100000 nM

Q: What does the source list for `NC(=O)c1c(N)sc2c1CCCCC2` [Compound 5]?
A: EC50 (HIV-1 replication) (HIV-1 replication; [2]): not active; selectivity index (SI) (HIV-1 replication; anti-HIV-1 activity vs cytotoxicity): 4; IC50 (HIV-1 RNase H): 2000 to 2500 nM; IC50 (HIV-1 RNase H; listed as 5 (NSC727447)): 2000 nM; IC50 (HIV-2 RNase H): 2000 to 2500 nM; IC50 (HIV-2 RNase H; listed as 5 (NSC727447)): 2500 nM; IC50 [1]: 4000 ± 500 nM

Q: What does the source list for `O=c1[nH]c(-c2ccc(O)c(O)c2)nc2sc3c(c12)CCCCC3` [Compound 7]?
A: EC50 (HIV-1 replication; [2]): 1600 nM; IC50 (HIV-1 RNase H): 290 nM; CC50 (cell growth): 6800 nM

Q: Which results are given for `Cc1cc(-c2ccccc2)n2nc(NC(=O)c3ccc(O)c(O)c3)nc2n1` [Compound 12g, 3,4-Dihydroxy-N-(5-methyl-7-phenyl-[1,2,4]triazolo[1,5-a]pyrimidin-2-yl)benzamide]?
A: anti-HIV-1 (IIIB strain) activity (HIV-1 (IIIB strain)): did not result in anti-HIV-1 activity in cellular context; also recorded: none of the compounds having RNase H inhibition showed anti-HIV activity at concentrations lower than those cytotoxic; melting point: 285 to 288 °C; CC50 at 5 days (in vitro): 112000 nM; anti-HIV-2 (ROD strain) activity (HIV-2 (ROD strain)): none of the compounds having RNase H inhibition showed anti-HIV activity at concentrations lower than those cytotoxic; IC50 (HIV-1 RT-associated RDDP): > 100000 nM; IC50 [1]: 800 ± 200 nM
